Assay results published in patent EP1180991B1, “GAMBOGIC ACID DERIVATIVES AS ACTIVATORS OF CASPASES AND INDUCERS OF APOPTOSIS” (Cytovia, Inc., priority 1999, dated 2000).
Like-named read-outs stand apart in the source and are kept apart here.

What was measured:
T-47D [1] = assay: Caspase cascade activation by known antineoplastic compounds (Example 92); details: Homo sapiens, T47D, 24 h, read-out: ratio of the net RFU value for test compounds to that of control samples (caspase cascade activation)
Procedure: (§8) The samples were mixed by agitation and then incubated at 37° C for 24 h in a 5% CO2-95% humidity incubator. […] The samples were mixed by agitation and incubated for 3 h at room temperature. […] After the 3 h incubation, the samples were read for fluorescence as above (T = 3 h).
(§9) The Relative Fluorescence Unit values (RFU) were used to calculate the sample readings as follows: RFU(T=3⁢hr) −Control RFU(T=0) = Net RFU(T=3⁢hr) [formula]
(§10) The activity in caspase cascade activation was determined by the ratio of the net RFU value for test compounds to that of control samples.

PC-3 [2] = assay: as above; details: Homo sapiens, PC-3, 24 h, read-out: ratio of the net RFU value for test compounds to that of control samples (caspase cascade activation)
Procedure: as §8, §9, §10

MRC-5 [3] = assay: Caspase cascade activation assay (Example 90); format: cell-based, human; details: for EC50: Homo sapiens; for caspase activity (Ratio): 0.16 to 10 µM final, net RFU ratio to control
Procedure: (§1) Human breast cancer cell lines T-47D and ZR-75-1, human prostate cancer cell line PC-3, human leukemia cancer cell line HL-60 and human non-transformed fibroblast cell line MRC-5 cells were grown according to media component mixtures designated by The American Type Culture Collection + 10% FCS (Life Technologies, Inc.), in a 5% CO2 -95% humidity incubator at 37° C. T-47D, ZR-75-1 and PC-3 cells were maintained at a cell density between 30 and 80% confluency and for HL-60 at a cell density of 0.1 to 0.6 x 10^6 cells/ml. Cells were harvested at 600xg and resuspended at 0.65 x 10^6 cells/ml into appropriate media + 10% FCS. […] The samples were mixed by agitation and incubated at room temperature.
(§2) The EC50 (nM) was determined by a sigmoidal dose-response calculation (Prism 2.0, GraphPad Software Inc.). Caspase Activity and Potency

ZR-75-1 [4] = assay: Caspase cascade activation assay (Example 90); format: cell-based, human; details: for EC50: Homo sapiens; for caspase activity (Ratio): 0.16 to 10 µM final, net RFU ratio to control
Procedure: as §1, §2

PC-3 [5] = assay: Caspase cascade activation assay (Example 90); format: cell-based, human; details: for EC50: Homo sapiens; for caspase activity (Ratio): 0.16 to 10 µM final, net RFU ratio to control
Procedure: as §1, §2

T-47D [6] = assay: Caspase cascade activation assay (Example 90); format: cell-based, human; details: for EC50: Homo sapiens, T47D; for caspase activity (Ratio): 0.16 to 10 µM final, net RFU ratio to control
Procedure: as §1, §2

HL-60 [7] = assay: Caspase cascade activation assay (Example 90); format: cell-based, human; details: for caspase activity (Ratio): HL-60, 24 h incubation, 0.16 to 10 µM final, net RFU ratio to control
Procedure: as §1, §2

MRC-5 [8] = assay: Inhibition of cell proliferation (GI50) and cell death (LC50), CellTiter 96 (Example 91); format: cell-based, human
Procedure: (§3) T-47D, ZR-75-1, PC-3, human prostate cancer cell line DU-145, human non-small cell lung cancer cell line A-549, human small cell lung cancer cell line SHP-77, HL-60 and MRC-5 cells were grown and harvested as in Example 90. […] The samples were mixed by agitation and incubated at 37° C for 2-4 h in a 5% CO2-95% humidity incubator. […] This determines the possible background absorbance of the test compounds. No absorbance for gambogic acid or its analogs or derivatives was found at 490 nm. After the 2-4 h incubation, the samples were read for absorbance as above (ATest).
(§4) The samples were mixed by agitation and incubated at 37° C for 2-4 h in a 5% CO2-95% humidity incubator. Absorbance was read as above, (AT=0) defining absorbance for initial cell number used as baseline in GI50 determinations and (Amin) defining absorbance for media alone used as baseline in LC50 determinations.
(§5) GI50 (dose for50%inhibition of cell proliferation) 50 = 100 x [(ATest-AT = 0)/(Amax-AT = 0)] [formula] LC50 (dose for50%cell death) 50 = 100 x [(ATest-Amin)/(AT = 0-Amin)] [formula]

A-549 = assay: as above; format: cell-based; details: Homo sapiens, A549, 48 h
Procedure: as §3, §4, §5

SHP-77 = assay: as above; format: cell-based; details: Homo sapiens, SHP77, 48 h
Procedure: as §3, §4, §5

DU-145 = assay: as above; format: cell-based; details: Homo sapiens, DU-145, 48 h
Procedure: as §3, §4, §5

ZR-75-1 [9] = assay: as above; format: cell-based; details: Homo sapiens, ZR-75-1, 48 h
Procedure: as §3, §4, §5

PC-3 [10] = assay: as above; format: cell-based; details: Homo sapiens, PC-3, 48 h
Procedure: as §3, §4, §5

HL-60 [11] = assay: as above; format: cell-based; details: Homo sapiens, HL-60, 48 h
Procedure: as §3, §4, §5

T-47D [12] = assay: as above; format: cell-based; details: Homo sapiens, T47D, 48 h
Procedure: as §3, §4, §5

KB-V1 = details: Lin et al. 1993; cited from earlier work
KB = details: Lin et al. 1993; cited from earlier work
PC3 cells = assay: PARP cleavage, western blot (Example 98); format: cell-based, human; details: 1 µM, 2 h and 4 h (Fig. 5D)
Procedure: (§6) Cleavage of the enzyme poly(ADP)ribose polymerase (PARP) by caspase-3 and related proteases is considered to be one of the molecular hallmarks of caspase-mediated apoptosis. Therefore, the ability of gambogic acid to induce PARP cleavage in four different human tumor cell lines (Jurkat cells, HL-60 cells, T47D cells and PC3 cells) was determined.
(§7) […] Control cultures were treated with a drug vehicle (DMSO), or the well-characterized apoptosis inducer, staurosporine. At the end of the apoptosis induction period, the cells were harvested, washed once with PBS, quick-frozen on dry ice, and stored at -80° C. The cells were then lysed in a standard immunoblotting lysis buffer and samples of the lysates were electrophoresed on 4% to 20% gradient polyacrylamide gels. The proteins in the gels were then transferred to PVDF membranes and probed with a commercially-available rabbit polyclonal antibody to PARP.

T47D cells = assay: PARP cleavage, western blot (Example 98); format: cell-based, human; details: 1 µM, 2 h and 4 h (Fig. 5C)
Procedure: as §6, §7

[13] = tested on: several cancer cell lines; details: cited from earlier work
[14] = MRC-5 non-transformed fibroblasts, 24 h incubation

SMILES: CC[C@@]1(O)C(=O)OCc2c1cc1n(c2=O)Cc2cc3ccccc3nc2-1 [Camptothecin]
- fold induction at 10 µM (T-47D [1]): 0.7
- fold induction at 10 µM (PC-3 [2]): 0.6

SMILES: COc1c2c(c(CC=C(C)C)c3c1C(=O)C1=CC4CC5C(C)(C)OC(C/C=C(/C)C(=O)N6CCCCC6)(C4=O)C15O3)OC(C)(CCC=C(C)C)C=C2 (stereo not drawn) [Example 7, 6-Methoxy-gambogyl Piperidine]
- EC50 (MRC-5 [3]; MRC5, MRC-5 non-transformed fibroblasts, caspase activation, 24 h incubation, read-out: EC50): 1.2 µM
- EC50 (ZR-75-1 [4]; ZR-75-1, caspase activation, 24 h incubation, read-out: EC50): 1.65 µM
- EC50 (PC-3 [5]; PC-3, caspase activation, 24 h incubation, read-out: EC50): 1.7 µM
- EC50 (T-47D [6]; T-47D, caspase activation, 24 h incubation, read-out: EC50): 0.83 µM

SMILES: CC(=O)O[C@H]1C(=O)[C@@]2(C)[C@H]([C@H](OC(=O)c3ccccc3)[C@]3(O)C[C@H](OC(=O)[C@H](O)[C@@H](NC(=O)c4ccccc4)c4ccccc4)C(C)=C1C3(C)C)[C@]1(OC(C)=O)CO[C@@H]1C[C@@H]2O [Taxol]
- fold induction at 10 µM (T-47D [1]): 0.9
- fold induction at 10 µM (PC-3 [2]): 0.7

SMILES: COC(=O)/C(C)=C\CC12OC(C)(C)C3CC(C=C4C(=O)c5c(O)c6c(c(CC=C(C)C)c5OC431)OC(C)(CCC=C(C)C)C=C6)C2=O (stereo not drawn) [Example 4, Methyl Gambogate]
- EC50 (MRC-5 [3]; MRC5, 24 h): 0.501 µM
- caspase activity (Ratio) (MRC-5 [3]; [14]): 27.8
- EC50 (ZR-75-1 [4]; ZR-75-1, 24 h): 1.64 µM
- caspase activity (Ratio) (ZR-75-1 [4]; ZR-75-1, 24 h incubation): 14.9
- EC50 (PC-3 [5]; PC-3, 24 h): 1.33 µM
- caspase activity (Ratio) (PC-3 [5]; PC-3, 24 h incubation): 3.9
- caspase activity (Ratio) (HL-60 [7]): 7.7
- EC50 (HL-60 [7]; Homo sapiens, HL-60, 24 h): 0.339 µM
- EC50 (T-47D [6]; 24 h): 0.484 µM
- caspase activity (Ratio) (T-47D [6]; T-47D, 24 h incubation): 16.8
- GI50 (MRC-5 [8]; Homo sapiens, MRC5, 48 h): 0.2 µM
- CC50 (MRC-5 [8]; MRC-5 non-transformed fibroblasts, 48 h, dose for 50% cell death): 0.5 µM
- GI50 (A-549): 0.5 µM
- CC50 (A-549; read-out: LC50): 2 µM
- GI50 (SHP-77): 0.5 µM
- CC50 (SHP-77; read-out: LC50): 0.5 µM
- GI50 (DU-145): 0.5 µM
- CC50 (DU-145; read-out: LC50): 0.5 µM
- GI50 (ZR-75-1 [9]): 0.3 µM
- CC50 (ZR-75-1 [9]; read-out: LC50): 0.5 µM
- GI50 (PC-3 [10]): 0.5 µM
- CC50 (PC-3 [10]; read-out: LC50): 0.5 µM
- GI50 (HL-60 [11]): 0.05 µM
- CC50 (HL-60 [11]; read-out: LC50): 0.5 µM
- GI50 (T-47D [12]): 0.04 µM
- CC50 (T-47D [12]; read-out: LC50): 0.05 µM

SMILES: CC(C)=CCC/C(C)=C/Cc1c(O)c(CC=C(C)C)c2c(c1O)C(=O)C1=CC3CC4C(C)(C)OC(C/C=C(/C)C(=O)O)(C3=O)C14O2 (stereo not drawn) [Example 2, Gambogenic Acid]
- caspase activity (Ratio) (MRC-5 [3]; [14]): 22.4
- caspase activity (Ratio) (ZR-75-1 [4]; ZR-75-1, 24 h incubation): 14.2
- caspase activity (Ratio) (PC-3 [5]; PC-3, 24 h incubation): 2.9
- caspase activity (Ratio) (HL-60 [7]): 5.6
- caspase activity (Ratio) (T-47D [6]; T-47D, 24 h incubation): 16.9

SMILES: COC(=O)/C(C)=C\CC12OC(C)(C)C3CC(C=C4C(=O)c5c(OC)c6c(c(CC=C(C)C)c5OC431)OC(C)(CCC=C(C)C)C=C6)C2=O (stereo not drawn) [Example 6, Methyl-6-methoxy-gambogate]
- caspase activity (Ratio) (PC-3 [5]; PC-3, 24 h incubation): 4.5
- caspase activity (Ratio) (T-47D [6]; T-47D, 24 h incubation): 12.0

SMILES: CC(C)=CCc1c2c(c(O)c3c1OC14C(=CC5CC1C(C)(C)OC4(C/C=C(\C)CO)C5=O)C3=O)C=CC(C)(C)O2 (stereo not drawn) [isomorellinol, reference compound]
- cytotoxicity (KB-V1): cytotoxic
- cytotoxicity (KB): cytotoxic

SMILES: COc1cc([C@@H]2c3cc4c(cc3[C@@H](O[C@@H]3O[C@@H]5CO[C@@H](C)O[C@H]5[C@H](O)[C@H]3O)[C@H]3COC(=O)[C@H]23)OCO4)cc(OC)c1O [Etoposide]
- fold induction at 10 µM (T-47D [1]): 1
- fold induction at 10 µM (PC-3 [2]): 0.8

SMILES: CN[C@@H]1C[C@H]2O[C@@](C)([C@@H]1OC)n1c3ccccc3c3c4c(c5c6ccccc6n2c5c31)C(=O)NC4 [staurosporine, reference compound]
- PARP cleavage (PC3 cells): no cleavage of PARP
- PARP cleavage (T47D cells): no cleavage of PARP

SMILES: CC(C)=CCc1c(O)cc(O)c2c1O[C@]13C(=C[C@@H]4C[C@H]1C(C)(C)O[C@@]3(CC=C(C)C)C4=O)C2=O [forbesione, reference compound]
- cytotoxicity [13]: significant cytotoxicity
